According to US8372991B2, “Trisubstituted thiophenes that modulate intracellular calcium” (Calcimedica, Inc., priority 2008, dated 2013):
One block for each molecule: values may come before it.

Tested on: JR251 or RBL cells
Test: Store-operated calcium entry IC50 in either JR251 or RBL cells
Format: cell-based
Method: The day prior to performing the assay Orai1/STIM1 stable cells were plated in 50 μL of complete medium at 90-95% confluence in a 384 well plate. Cells were grown at 37° C./6% CO2 overnight. On the day of the assay, 1.5 μM fluo-4-AM (Invitrogen) in complete medium was added to the cells, which were then incubated for 1 hour at RT. Cells were washed once in Ca^2+-free HBSS (Hank's buffered saline solution) and 35 μl of Ca^2+-free HBSS was added to each well. Test compounds were added to wells in a 10 μL Ca^2+-free HBSS solution, prepared at 4.5× the desired final concentration, and incubated for 30 minutes at RT. The initial baseline fluorescence signal was then measured with a FLIPR^384 (Molecular Devices) plate reader. Calcium entry was initiated by adding 5 μl of 10× CaCl2 (10 mM) in HBSS, and changes in cellular fluorescence were measured with the FLIPR^384 plate reader. In each well, the magnitude of the fluorescence signal as a result of calcium entry into the cell was determined by calculating the difference between the peak fluorescence signal measured after calcium addition and the initial baseline fluorescence signal (designated Peak-Basal). IC50 values were typically calculated as the concentration that inhibited 50% of the Peak-Basal signal (Table A).
The day prior to performing the assay, RBL-2H3 cells are plated in 50 μL of complete medium in a 384 well plate. Cells are grown at 37° C./6% CO2 overnight and grow to 50-60% confluence by the next day. On the assay day, 1.5 μM Fluo-4-AM dye (Invitrogen) in complete medium is added and incubated for 1 hour at RT. Cells are washed twice in Ca^2+-free HBSS buffer and 35 μL Ca^2+-free HBSS buffer is added to each well. 10 μL of a test compound prepared in a Ca^2+-free HBSS solution at 4.5× of the desired concentration is added to a well and incubated for 5 minutes at RT. 10 μL of thapsigargin prepared in a Ca^2+-free HBSS solution at 5.5× of the desired concentration (5.5 uM) is added to each well and incubated for an additional 25 minutes. The initial baseline fluorescence signal is measured with a FLIPR^384 (Molecular Devices) plate reader. 5 μL of 12× calcium in HBSS (12 mM) is added and changes in cellular fluorescence are measured with the FLIPR^384 plate reader. In each well, the change in the fluorescent signal as a function of time due to calcium entry into the cell is determined by calculating the difference between the fluorescent signal measured 7 seconds after calcium addition and the initial baseline fluorescence signal at time zero (t=0). This parameter is designated Upslope. The IC50 value is calculated as the concentration at which 50% of the Upslope is inhibited.

IC50: < 10 µM
SMILES: O=C(Nc1scc(-c2c[nH]c3ccccc23)c1C(=O)O)c1cccc(F)c1 [2-(3-fluorobenzamido)-4-(1H-indol-3-yl)thiophene-3-carboxylic acid]

IC50: < 10 µM
SMILES: Cc1nc(N2CCCCC2)ncc1-c1csc(NC(=O)c2cccc(F)c2)c1C(=O)O [2-(3-fluorobenzamido)-4-(4-methyl-2-(piperidin-1-yl)pyrimidin-5-yl)thiophene-3-carboxylic acid]

IC50: < 10 µM
SMILES: Cc1csc(-c2csc(NC(=O)c3cccc(F)c3)c2C(=O)O)n1 [2-(3-fluorobenzamido)-4-(4-methylthiazol-2-yl)thiophene-3-carboxylic acid]

IC50: < 10 µM
SMILES: COc1ccc(-c2csc(NC(=O)c3cccc(F)c3)c2C(=O)O)cn1 [2-(3-fluorobenzamido)-4-(6-methoxypyridin-3-yl)thiophene-3-carboxylic acid]

IC50: < 10 µM
SMILES: O=C(Nc1scc(-c2cnccn2)c1C(=O)O)c1cccc(F)c1 [2-(3-fluorobenzamido)-4-(pyrazin-2-yl)thiophene-3-carboxylic acid]

IC50: < 10 µM
SMILES: O=C(Nc1scc(-c2ncco2)c1C(=O)O)c1ccc(F)cc1 [2-(4-fluorobenzamido)-4-(oxazol-2-yl)thiophene-3-carboxylic acid]

IC50: < 10 µM
SMILES: Cc1cc(-c2csc(NC(=O)c3cnn(C)c3Cl)c2C(=O)O)n(C)n1 [2-(5-chloro-1-methyl-1H-pyrazole-4-carboxamido)-4-(1,3-dimethyl-1H-pyrazol-5-yl)thiophene-3-carboxylic acid]

IC50: < 10 µM
SMILES: Cn1nc(C(F)(F)F)cc1-c1csc(NC(=O)c2cc3ccccc3o2)c1C(=O)O [2-(benzofuran-2-carboxamido)-4-(1-methyl-3-(trifluoromethyl)-1H-pyrazol-5-yl)thiophene-3-carboxylic acid]

IC50: < 10 µM
SMILES: Cc1ccc(-c2csc(NC(=O)c3ccccc3)c2C(=O)O)o1 [2-benzamido-4-(5-methylfuran-2-yl)thiophene-3-carboxylic acid]

IC50: < 10 µM
SMILES: Cc1cc(-c2csc(NC(=O)c3cccc(F)c3)c2C(=O)O)n(C)n1 [4-(1,3-dimethyl-1H-pyrazol-5-yl)-2-(3-fluorobenzamido)thiophene-3-carboxylic acid]

IC50: < 10 µM
SMILES: Cc1cc(-c2csc(NC(=O)c3snnc3C)c2C(=O)O)n(C)n1 [4-(1,3-dimethyl-1H-pyrazol-5-yl)-2-(4-methyl-1,2,3-thiadiazole-5-carboxamido)thiophene-3-carboxylic acid]

Second part, the molecule before the results:

SMILES: Cc1nc(N2CCCCC2)ncc1-c1csc(NC(=O)c2snnc2C)c1C(=O)O [2-(4-methyl-1,2,3-thiadiazole-5-carboxamido)-4-(4-methyl-2-(piperidin-1-yl)pyrimidin-5-yl)thiophene-3-carboxylic acid]
IC50: < 10 µM

SMILES: Cc1nnsc1C(=O)Nc1scc(-c2cnccn2)c1C(=O)O [2-(4-methyl-1,2,3-thiadiazole-5-carboxamido)-4-(pyrazin-2-yl)thiophene-3-carboxylic acid]
IC50: < 10 µM

SMILES: Cn1ncc(C(=O)Nc2scc(-c3cnn(-c4ccc(Cl)cc4)c3)c2C(=O)O)c1Cl [2-(5-chloro-1-methyl-1H-pyrazole-4-carboxamido)-4-(1-(4-chlorophenyl)-1H-pyrazol-4-yl)thiophene-3-carboxylic acid]
IC50: < 10 µM

SMILES: Cc1nc(N2CCCCC2)ncc1-c1csc(NC(=O)c2cnn(C)c2Cl)c1C(=O)O [2-(5-chloro-1-methyl-1H-pyrazole-4-carboxamido)-4-(4-methyl-2-(piperidin-1-yl)pyrimidin-5-yl)thiophene-3-carboxylic acid]
IC50: < 10 µM

SMILES: Cc1ccc(-c2csc(NC(=O)c3nc4ccccc4o3)c2C(=O)O)c2ccccc12 [2-(benzo[d]oxazole-2-carboxamido)-4-(4-methylnaphthalen-1-yl)thiophene-3-carboxylic acid]
IC50: < 10 µM

SMILES: O=C(Nc1scc(-c2ccc3ccccc3c2)c1C(=O)O)c1nc2ccccc2o1 [2-(benzo[d]oxazole-2-carboxamido)-4-(naphthalen-2-yl)thiophene-3-carboxylic acid]
IC50: < 10 µM

SMILES: O=C(Nc1scc(-c2nc3ccccc3n2C(F)F)c1C(=O)O)c1cc2ccccc2o1 [2-(benzofuran-2-carboxamido)-4-(1-(difluoromethyl)-1H-benzo[d]imidazol-2-yl)thiophene-3-carboxylic acid]
IC50: < 10 µM

SMILES: Cn1ccc2cc(-c3csc(NC(=O)c4cc5ccccc5o4)c3C(=O)O)ccc21 [2-(benzofuran-2-carboxamido)-4-(1-methyl-1H-indol-5-yl)thiophene-3-carboxylic acid]
IC50: < 10 µM

SMILES: O=C(Nc1scc(-c2c[nH]c3ccccc23)c1C(=O)O)c1cc2ccccc2o1 [2-(benzofuran-2-carboxamido)-4-(1H-indol-3-yl)thiophene-3-carboxylic acid]
IC50: < 10 µM

SMILES: O=C(Nc1scc(-c2cnc3[nH]ccc3c2)c1C(=O)O)c1cc2ccccc2o1 [2-(benzofuran-2-carboxamido)-4-(1H-pyrrolo[2,3-b]pyridin-5-yl)thiophene-3-carboxylic acid]
IC50: < 10 µM

SMILES: Cc1nc(C)c(-c2csc(NC(=O)c3cc4ccccc4o3)c2C(=O)O)s1 [2-(benzofuran-2-carboxamido)-4-(2,4-dimethylthiazol-5-yl)thiophene-3-carboxylic acid]
IC50: < 10 µM

SMILES: O=C(Nc1scc(-c2ccc(F)nc2F)c1C(=O)O)c1cc2ccccc2o1 [2-(benzofuran-2-carboxamido)-4-(2,6-difluoropyridin-3-yl)thiophene-3-carboxylic acid]
IC50: < 10 µM

SMILES: O=C(Nc1scc(-c2cnc(C(F)(F)F)nc2)c1C(=O)O)c1cc2ccccc2o1 [2-(benzofuran-2-carboxamido)-4-(2-(trifluoromethyl)pyrimidin-5-yl)thiophene-3-carboxylic acid]
IC50: < 10 µM

SMILES: O=C(Nc1scc(-c2ccnc(F)c2)c1C(=O)O)c1cc2ccccc2o1 [2-(benzofuran-2-carboxamido)-4-(2-fluoropyridin-4-yl)thiophene-3-carboxylic acid]
IC50: < 10 µM

SMILES: Cc1ccc(-c2csc(NC(=O)c3cc4ccccc4o3)c2C(=O)O)c2ccccc12 [2-(benzofuran-2-carboxamido)-4-(4-methylnaphthalen-1-yl)thiophene-3-carboxylic acid]
IC50: < 10 µM

SMILES: Cc1csc(-c2csc(NC(=O)c3cc4ccccc4o3)c2C(=O)O)n1 [2-(benzofuran-2-carboxamido)-4-(4-methylthiazol-2-yl)thiophene-3-carboxylic acid]
IC50: < 10 µM

SMILES: CCOc1ccc(-c2csc(NC(=O)c3cc4ccccc4o3)c2C(=O)O)cn1 [2-(benzofuran-2-carboxamido)-4-(6-ethoxypyridin-3-yl)thiophene-3-carboxylic acid]
IC50: < 10 µM

SMILES: O=C(Nc1scc(-c2ccc(F)nc2)c1C(=O)O)c1cc2ccccc2o1 [2-(benzofuran-2-carboxamido)-4-(6-fluoropyridin-3-yl)thiophene-3-carboxylic acid]
IC50: < 10 µM

SMILES: COc1ccc(-c2csc(NC(=O)c3cc4ccccc4o3)c2C(=O)O)cn1 [2-(benzofuran-2-carboxamido)-4-(6-methoxypyridin-3-yl)thiophene-3-carboxylic acid]
IC50: < 10 µM

SMILES: Cc1ccc(-c2csc(NC(=O)c3cc4ccccc4o3)c2C(=O)O)cn1 [2-(benzofuran-2-carboxamido)-4-(6-methylpyridin-3-yl)thiophene-3-carboxylic acid]
IC50: < 10 µM

SMILES: COc1cccc2cc(-c3csc(NC(=O)c4cc5ccccc5o4)c3C(=O)O)[nH]c12 [2-(benzofuran-2-carboxamido)-4-(7-methoxy-1H-indol-2-yl)thiophene-3-carboxylic acid]
IC50: < 10 µM

SMILES: Cc1ccc(-c2csc(NC(=O)c3cc4ccccc4o3)c2C(=O)O)c2cccnc12 [2-(benzofuran-2-carboxamido)-4-(8-methylquinolin-5-yl)thiophene-3-carboxylic acid]
IC50: < 10 µM

SMILES: O=C(Nc1scc(-c2ccc3ccccc3c2)c1C(=O)O)c1cc2ccccc2o1 [2-(benzofuran-2-carboxamido)-4-(naphthalen-2-yl)thiophene-3-carboxylic acid]
IC50: < 10 µM

SMILES: O=C(Nc1scc(-c2ccc3nccnc3c2)c1C(=O)O)c1cc2ccccc2o1 [2-(benzofuran-2-carboxamido)-4-(quinoxalin-6-yl)thiophene-3-carboxylic acid]
IC50: < 10 µM

SMILES: Cn1cnc(C(=O)Nc2scc(-c3cnn(-c4ccc(Cl)cc4)c3)c2C(=O)O)c1 [4-(1-(4-chlorophenyl)-1H-pyrazol-4-yl)-2-(1-methyl-1H-imidazole-4-carboxamido)thiophene-3-carboxylic acid]
IC50: < 10 µM
